The values that follow come from ChEMBL document CHEMBL1201862, “PubChem BioAssay data set” (2004).

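1) Cells in 96-well plates. 2) Compound, 48 h, 5 concentrations. 3) Linear interpolation between surrounding doses. 4) Unreached endpoint = highest concentration. The concentration for 50% growth inhibition is given as GI50.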 Calls of active or inactive are those of the source. No stated cut-off is given here; in the data, active = GI50 up to about 1.1 µM and inactive = higher. Where only a bound is given, the exact number is not on record here.

Holding throughout (test): inhibition of tumour cell growth, NCI panel, 48 h
Test [1] deals with CAKI-1.
The subject of test [2] is SK-MEL-5.
In test [3] the test system is COLO 205.
Test [4] concerns HT-29.
Test [5] deals with DU-145.
For test [6], the system named is MCF7.
The subject of test [7] is K562.
The subject of test [8] is Malme-3M.
Test [9] concerns KM12.
Test [10] concerns HL-60.
The subject of test [11] is SK-OV-3.
Test [12] concerns UO-31.
In test [13] the test system is LOX IMVI.
For test [14], the system named is HOP-92.
The test system of test [15] is RPMI-8226.
The test system of test [16] is SR.
In test [17] the test system is SF-295.
Test [18] relates to Hs-578T.
In test [19] the test system is A549.
Test [20] concerns OVCAR-8.

Regarding `CC(NC(=O)OC(C)(C)C)C(=O)NC1CCCC1` (stereo not given), the GI50 in test [1], in test [2], in test [3], in test [4], in [5] and in test [6] was > 100 µM (inactive) each time. Besides, the GI50 in [7], in test [8], in test [9], in test [10], in [11] and in test [12] was > 100 µM (inactive) each time. Moreover, the GI50 in test [13], in test [14], in [15], in test [16], in test [17] and in test [18] was > 100 µM (inactive) each time. In addition, the GI50 in [19] and in test [20] was > 100 µM (inactive) each time.

As to `COc1cc(OC)c(/C=C\c2cc(/C=C/c3c(OC)cc(OC)cc3OC)c3ccccc3[n+]2C)c(OC)c1`, the GI50 in test [1] is 6.61 µM (inactive); in test [2] it was 1.31 µM (inactive); in test [3] it was 1.67 µM (inactive); in test [4] it was 1.83 µM (inactive); in [5], 5.94 µM (inactive); in test [6] it was 2.86 µM (inactive). In addition, the GI50 in test [7] was 1.64 µM (inactive); in test [8], 1.96 µM (inactive); in test [9], 2.98 µM (inactive); in test [10] it was 2 µM (inactive); in test [11], 4.69 µM (inactive); in test [12], 7.16 µM (inactive). Also, the GI50 in test [13] is 4.07 µM (inactive); in test [14], 2.95 µM (inactive); in [15], 2 µM (inactive); in [16], 2.24 µM (inactive); in test [17], 2.31 µM (inactive); in [18], 0.863 µM (active). Further, the GI50 in [19] is 3.94 µM (inactive); in test [20], 1.94 µM (inactive).

Take `CCCCCCCCCCCCCCCCNC(=O)/C(=C\c1ccc(Cl)c(Cl)c1)NC(=O)c1ccccc1`: the GI50 in test [1] was 66.7 µM (inactive); in test [2] it was > 100 µM (inactive); in test [3], 35.1 µM (inactive); in test [4], 35.5 µM (inactive); in test [5], 27.4 µM (inactive); in [6], 25.9 µM (inactive). Also, the GI50 in test [7] is 22 µM (inactive); in test [8] it was > 100 µM (inactive); in test [9], 52.6 µM (inactive); in test [10], 0.431 µM (active); in test [11], 53 µM (inactive); in test [12], 42 µM (inactive). Also, the GI50 is 21.9 µM (inactive) in test [13]; 14.2 µM (inactive) in [14]; 24.4 µM (inactive) in test [15]; 18.2 µM (inactive) in test [16]; 55.2 µM (inactive) in test [17]; 42.8 µM (inactive) in test [18]. The GI50 in [19] is 43.6 µM (inactive); in test [20] it was 59.6 µM (inactive).

Consider `CSC1NNC2(C(=O)N1)c1ccccc1-c1ccccc12` (stereo not given), for which the GI50 in test [1], in test [2], in test [3], in test [4], in [5] and in test [6] was > 10 µM (inactive) in each case. Also, the GI50 in test [7], in [8], in test [9], in [10], in [11] and in [12] was > 10 µM (inactive) each time. Moreover, the GI50 in [13], in [14], in test [15], in [16], in test [17] and in test [18] was > 10 µM (inactive) each time. Also, the GI50 in test [19] and in [20] was > 10 µM (inactive) each time.

Take `Nc1nncs1`: the GI50 in test [1] is 1760 µM (inactive); in [2], 2360 µM (inactive); in [3] it was 456 µM (inactive); in [4], 211 µM (inactive); in test [5] it was 2070 µM (inactive); in test [6] it was 2480 µM (inactive). Moreover, the GI50 in [7] is 1320 µM (inactive); in test [8], 3590 µM (inactive); in test [9] it was 1940 µM (inactive); in test [10], 2080 µM (inactive); in test [11], 151 µM (inactive); in test [12], 3530 µM (inactive). The GI50 in test [13] was 1450 µM (inactive); in test [14], 2260 µM (inactive); in test [15], 991 µM (inactive); in test [16] it was 2000 µM (inactive); in [17] it was 2760 µM (inactive); in [18], 1620 µM (inactive). The GI50 in [19] was 942 µM (inactive); in [20] it was 1910 µM (inactive).

For the molecule `N#Cc1c(C#N)c(SSc2c(C#N)c(C#N)c(N)n2-c2cccc3ccccc23)n(-c2cccc3ccccc23)c1N`, the GI50 was 8.05 µM (inactive) in test [1]; 20.2 µM (inactive) in test [2]; 3.67 µM (inactive) in test [3]; 19.7 µM (inactive) in [4]; 21.9 µM (inactive) in test [5]; 3.47 µM (inactive) in test [6]. Also, the GI50 is 3.51 µM (inactive) in [7]; 1.85 µM (inactive) in test [8]; 41.6 µM (inactive) in test [9]; 2.33 µM (inactive) in test [10]; 24.1 µM (inactive) in test [11]; 2.34 µM (inactive) in test [12]. Further, the GI50 is 7.94 µM (inactive) in [13]; 4.71 µM (inactive) in [14]; 2.76 µM (inactive) in test [15]; 2.34 µM (inactive) in test [16]; 19.9 µM (inactive) in test [17]; 24.6 µM (inactive) in [18]. Further, the GI50 in [19] is 19.9 µM (inactive); in [20], 4.36 µM (inactive).

In the case of `C[C@]12CC[C@H]3[C@@H](CC=C4C[C@@H](O)CC[C@@]43C)[C@@H]1C/C(=C\c1ccncc1)[C@@H]2O`, the GI50 was 18.1 µM (inactive) in [1]; 8.51 µM (inactive) in test [2]; 10.6 µM (inactive) in test [3]; 20.9 µM (inactive) in test [4]; 23.1 µM (inactive) in test [5]; 23 µM (inactive) in test [6]. Moreover, the GI50 in test [7] is 15.8 µM (inactive); in [8], 22.6 µM (inactive); in test [9] it was 15.9 µM (inactive); in [10], 10.2 µM (inactive); in test [11], 28.3 µM (inactive); in test [12] it was 27.1 µM (inactive). Further, the GI50 in [13] is 22 µM (inactive); in test [14], 2 µM (inactive); in test [15] it was 9.91 µM (inactive); in test [16] it was 8.87 µM (inactive); in test [17], 16.6 µM (inactive); in [18], 39.3 µM (inactive). The GI50 in test [19] is 19.7 µM (inactive); in test [20], 15 µM (inactive).

Take `Cc1ccc(Nc2nc3ccccc3c(=O)n2N)cc1`: the GI50 is > 100 µM (inactive) in test [1]; > 100 µM (inactive) in test [2]; > 100 µM (inactive) in [3]; 78.2 µM (inactive) in test [4]; > 100 µM (inactive) in test [5]; > 100 µM (inactive) in test [6]. The GI50 in test [7], in test [8], in test [9], in test [10], in [11] and in test [12] was > 100 µM (inactive) in each case. The GI50 in test [13], in [14], in test [15], in test [16], in [17] and in test [18] was > 100 µM (inactive) throughout. The GI50 in [19] and in test [20] was > 100 µM (inactive) each time.

In the case of `C/C(=N\NC(=O)Nc1ccccc1Cl)c1ccc(O)cc1`, the GI50 in [1], in test [2], in test [3], in test [4], in test [5] and in [6] was > 100 µM (inactive) throughout. For the same molecule, the GI50 was 8.02 µM (inactive) in test [7]; > 100 µM (inactive) in test [8]; > 100 µM (inactive) in test [9]; > 100 µM (inactive) in test [10]; > 100 µM (inactive) in test [11]; > 100 µM (inactive) in test [12]. Moreover, the GI50 is 45.6 µM (inactive) in [13]; > 100 µM (inactive) in [14]; > 100 µM (inactive) in test [15]; 4.34 µM (inactive) in [16]; > 100 µM (inactive) in [17]; > 100 µM (inactive) in test [18]. Besides, the GI50 in test [19] and in test [20] was > 100 µM (inactive) throughout.

Regarding `CCCCNCCCNCCCNC(=O)c1csc(-c2csc(CCNC(=O)C(NC(=O)C(C)C(O)C(C)NC(=O)C(NC(=O)c3nc(C(CC(N)=O)NCC(N)C(N)=O)nc(N)c3C)C(OC3OC(CO)C(O)C(O)C3OC3OC(CO)C(O)C(OC(N)=O)C3O)c3c[nH]cn3)C(C)O)n2)n1` (stereo not given), the GI50 in [1] is 0.362 µM (active); in test [2], 0.247 µM (active); in test [3], 9.44 µM (inactive); in test [4] it was 25.1 µM (inactive); in test [5], 11.1 µM (inactive); in test [6], 1.86 µM (inactive). Moreover, the GI50 in test [7] was 10.1 µM (inactive); in test [8], 0.294 µM (active); in test [9] it was 8.67 µM (inactive); in [10], 14.9 µM (inactive); in test [11], 4.06 µM (inactive); in test [12], 0.372 µM (active). For the same molecule, the GI50 in test [13] is 0.105 µM (active); in test [14], 0.0798 µM (active); in [15], > 50 µM (inactive); in test [16], 6.44 µM (inactive); in test [17], 0.0681 µM (active); in [18] it was 8.79 µM (inactive). Further, the GI50 in test [19] is 0.386 µM (active); in test [20], 1.92 µM (inactive).
